We go through seven molecules from patent publication US10414760B2, “Cytochrome P450 inhibitors and uses thereof” (ANGION BIOMEDICA CORP., priority 2016, dated 2019).

Series [1] addresses T1, CYP26 (Mus musculus, UniProt O55127).
T1 construct: tissue Xenotech; host or cells: liver microsomes of ATRA-treated mice
T1 sequence (O55127 1-497): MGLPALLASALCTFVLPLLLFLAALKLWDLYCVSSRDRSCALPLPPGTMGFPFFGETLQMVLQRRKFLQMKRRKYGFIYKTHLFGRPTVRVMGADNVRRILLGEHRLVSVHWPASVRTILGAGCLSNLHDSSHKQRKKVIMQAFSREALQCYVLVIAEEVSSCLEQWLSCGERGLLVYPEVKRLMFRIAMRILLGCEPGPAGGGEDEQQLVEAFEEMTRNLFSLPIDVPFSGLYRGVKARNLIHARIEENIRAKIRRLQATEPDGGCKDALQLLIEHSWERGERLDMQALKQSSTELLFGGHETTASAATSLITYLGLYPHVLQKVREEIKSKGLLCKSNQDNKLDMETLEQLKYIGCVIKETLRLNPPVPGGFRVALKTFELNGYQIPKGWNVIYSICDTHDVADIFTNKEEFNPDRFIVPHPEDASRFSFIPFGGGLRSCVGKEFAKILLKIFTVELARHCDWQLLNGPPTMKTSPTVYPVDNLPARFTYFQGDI
The series can be described thus: CYP26 inhibition: substrate depletion assay for ATRA metabolism in mouse microsomes. In kind it is biochemical. Here is the method:
(§1) Serum Testosterone and PSA and Tumor Testosterone Analysis. Tumor tissue obtained from mice will be homogenized in phosphate buffer (pH 7.4, 0.1 M) and homogenates centrifuged at 2000 g for 20 min. Testosterone concentrations in the serum and in the clear tissue homogenate supernatant will be determined with the ELISA kit from R&D Systems (Catalog # KGR010). Serum PSA concentrations will be measured using a PSA ELISA kit with a serum dilution according to the manufacturers instructions. • c. Breast cancer. To test the efficacy of compounds embodied herein against breast cancer, nude mice carrying human breast cancer lines that are estrogen receptor and Aromatase positive will be used. Cells will be grown in vitro and 2 million will be inoculated in Matrigel (50:50 volume ratio of cells to Matrigel). Cells will be distributed by s.c. injection at the right and left flanks or at the orthotopic sitest in 6 to 8 week old athymic nude mice (BALB/c strain) or severe combined immunodeficient mice under anesthesia. Animals will be treated with compound for 4 weeks, at which point animals will be sacrificed and collect blood samples and tumor tissue for the determination of serum and tumor estrogen levels. Tumors will be excised and a portion will be fixed in formalin for subsequent histochemical and immuno-histochemical analysis. The remainder will be snap frozen in liquid nitrogen and stored at −80° C. • 12. CYP26 inhibition activity. A substrate depletion assay for ATRA metabolism in mouse microsomes is used. […] The assay is run in a 100 μL reaction volume and stopped with an equal volume of methanol. […] CYP17 inhibition assay: In vitro assays for CYP17 17α-hydroxylase and C17,20-lyase activity, assays using rat and dog testis microsomes and ELISA kits from commercial vendors for the detection of formed products are employed. Incubation of rat testis microsomes with the substrate progesterone (P4) results, through the CYP17 17α-hydroxylase and C17,20-lyase activities, in a marked production of androstenedione (AD) in a time and enzyme-concentration dependent manner. […] In another control, microsomes isolated from rat livers, which are known to express very little or no CYP17, are shown to be devoid of this activity. Assays are also used that determine the activity of 17α-hydroxylase activity using P4 as a substrate and detecting HOP4 as a product (using dog testis microsomes) and the activity of C17,20-lyase by using HOP4 as a substrate and AD as a product (rat testis microsomes). • 14. CYP19 inhibition assay: For in vitro assays of CYP19 aromatase activity, commercially available CYP19 enzyme preparations (e.g. BD Gentest Supersomes Catalog #456260) and assay kits (e.g. BD Gentest Catalog #459520) are employed according to the manufacturers instructions.
CYP26 inhibition. […] The assay was run in a 100 μL reaction volume and stopped with an equal volume of methanol. […] Other compounds of formula (I) are similarly potent, for example with an IC50 of 1.6 nM.

In series [2] the target is T2, CYP17 (Rattus norvegicus, UniProt P11715).
T2 construct: using rat and dog testis microsomes and ELISA kits from commercial vendors; from tissue; host or cells: rat testis microsomes
T2 sequence (P11715 1-507): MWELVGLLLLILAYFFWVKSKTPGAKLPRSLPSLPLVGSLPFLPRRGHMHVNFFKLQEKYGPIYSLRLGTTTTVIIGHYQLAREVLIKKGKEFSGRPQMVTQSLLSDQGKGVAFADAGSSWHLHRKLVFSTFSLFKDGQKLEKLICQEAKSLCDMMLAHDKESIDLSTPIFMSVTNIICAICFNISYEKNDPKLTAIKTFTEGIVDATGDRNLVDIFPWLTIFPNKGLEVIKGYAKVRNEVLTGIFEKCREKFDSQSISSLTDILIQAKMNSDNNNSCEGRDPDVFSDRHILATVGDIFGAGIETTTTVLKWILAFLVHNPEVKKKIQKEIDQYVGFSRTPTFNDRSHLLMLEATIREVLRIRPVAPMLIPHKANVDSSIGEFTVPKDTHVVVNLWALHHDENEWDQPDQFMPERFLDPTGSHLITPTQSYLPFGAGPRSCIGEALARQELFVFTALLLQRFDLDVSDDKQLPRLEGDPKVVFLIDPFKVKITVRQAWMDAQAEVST
Briefly: CYP17 inhibition: 17α hydroxylase and C17,20 lyase activity in testis microsomes, ELISA detection. The class given is biochemical. As to conditions: which microsome assay (rat or dog testis) not specified. Here is the method: Serum Testosterone and PSA and Tumor Testosterone Analysis. Tumor tissue obtained from mice will be homogenized in phosphate buffer (pH 7.4, 0.1 M) and homogenates centrifuged at 2000 g for 20 min. Testosterone concentrations in the serum and in the clear tissue homogenate supernatant will be determined with the ELISA kit from R&D Systems (Catalog # KGR010). Serum PSA concentrations will be measured using a PSA ELISA kit with a serum dilution according to the manufacturers instructions. • c. Breast cancer. To test the efficacy of compounds embodied herein against breast cancer, nude mice carrying human breast cancer lines that are estrogen receptor and Aromatase positive will be used. Cells will be grown in vitro and 2 million will be inoculated in Matrigel (50:50 volume ratio of cells to Matrigel). Cells will be distributed by s.c. injection at the right and left flanks or at the orthotopic sitest in 6 to 8 week old athymic nude mice (BALB/c strain) or severe combined immunodeficient mice under anesthesia. Animals will be treated with compound for 4 weeks, at which point animals will be sacrificed and collect blood samples and tumor tissue for the determination of serum and tumor estrogen levels. Tumors will be excised and a portion will be fixed in formalin for subsequent histochemical and immuno-histochemical analysis. The remainder will be snap frozen in liquid nitrogen and stored at −80° C. • 12. CYP26 inhibition activity. […] The assay is run in a 100 μL reaction volume and stopped with an equal volume of methanol. […] CYP17 inhibition assay: In vitro assays for CYP17 17α-hydroxylase and C17,20-lyase activity, assays using rat and dog testis microsomes and ELISA kits from commercial vendors for the detection of formed products are employed. […] Assays are also used that determine the activity of 17α-hydroxylase activity using P4 as a substrate and detecting HOP4 as a product (using dog testis microsomes) and the activity of C17,20-lyase by using HOP4 as a substrate and AD as a product (rat testis microsomes). • 14.
CYP17 inhibition. In vitro assays for CYP17 17α hydroxylase and C17,20 lyase activity using rat and dog testis microsomes and ELISA kits from commercial vendors for the detection of formed products were employed. […] Assays were also used that determine the activity of 17α hydroxylase activity using P4 as a substrate and detecting HOP4 as a product (using dog testis microsomes) and the activity of C17,20 lyase by using HOP4 as a substrate and AD as a product (rat testis microsomes).

For series [3], the target named is T3, CYP19 (Homo sapiens, UniProt P11511).
T3 construct: purchased BD Gentest 456260
T3 sequence (P11511 1-503): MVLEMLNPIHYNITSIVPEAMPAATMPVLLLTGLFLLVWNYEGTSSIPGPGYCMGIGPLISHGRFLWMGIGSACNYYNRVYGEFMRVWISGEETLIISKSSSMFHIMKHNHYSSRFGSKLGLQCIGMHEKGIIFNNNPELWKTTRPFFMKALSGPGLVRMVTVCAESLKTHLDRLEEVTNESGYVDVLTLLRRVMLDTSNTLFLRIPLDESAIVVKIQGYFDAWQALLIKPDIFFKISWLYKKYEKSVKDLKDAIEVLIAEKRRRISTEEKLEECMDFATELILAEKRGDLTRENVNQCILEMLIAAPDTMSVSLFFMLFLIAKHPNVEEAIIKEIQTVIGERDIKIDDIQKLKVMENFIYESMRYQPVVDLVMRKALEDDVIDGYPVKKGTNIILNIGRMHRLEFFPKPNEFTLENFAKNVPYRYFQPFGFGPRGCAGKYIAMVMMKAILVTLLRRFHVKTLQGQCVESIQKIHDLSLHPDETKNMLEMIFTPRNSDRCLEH
The series can be described thus: CYP19 inhibition: commercially available recombinant enzyme and assay kit. In kind it is biochemical. As to the method: as §1
Selectivity for other P450 enzymes. To assess the selectivity of compounds embodied herein, activity was evaluated first against CYP3A4 and CYP19 using commercially available recombinant enzymes and assay kits. To calculate a selectivity factor, the IC50 for a particular P450 enzyme was divided by the IC50 in the CYP17 combination assay.

Series [4] deals with T4, CYP26 (Homo sapiens, UniProt O43174).
T4 sequence (O43174 1-497): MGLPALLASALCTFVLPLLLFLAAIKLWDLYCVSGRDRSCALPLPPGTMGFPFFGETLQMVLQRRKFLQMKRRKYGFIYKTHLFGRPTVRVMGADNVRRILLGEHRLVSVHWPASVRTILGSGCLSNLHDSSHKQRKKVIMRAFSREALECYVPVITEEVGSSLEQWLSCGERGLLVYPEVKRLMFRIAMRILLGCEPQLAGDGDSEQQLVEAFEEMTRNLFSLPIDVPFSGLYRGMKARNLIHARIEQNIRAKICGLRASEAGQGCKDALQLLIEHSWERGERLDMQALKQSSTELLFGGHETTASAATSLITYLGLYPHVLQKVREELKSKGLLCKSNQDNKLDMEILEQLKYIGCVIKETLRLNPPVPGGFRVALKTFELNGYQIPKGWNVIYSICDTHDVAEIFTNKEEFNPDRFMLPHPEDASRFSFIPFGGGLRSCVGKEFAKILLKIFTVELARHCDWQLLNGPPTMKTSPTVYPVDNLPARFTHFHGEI
As to conditions: human recombinant enzyme; read-out: Km reported for the human recombinant enzyme; cited from earlier work.

Substrate in series [5]: CC1=C(/C=C/C(C)=C/C=C/C(C)=C/C(=O)O)C(C)(C)CCC1
The series can be described thus: cells, lysate or membranes named. As to conditions: other: induced mouse microsomes; pH 7.4.

For `CCC(C(c1ccc2nc(Br)sc2c1)n1ccnc1)N(C)C` (centres unmarked) [Example 8, 1-(2-Bromobenzo[d]thiazol-6-yl)-1-(1H-imidazol-1-yl)-N,N-dimethylbutan-2-amine], the IC50 was under 1000 nM in series [1], under 5 µM in series [2] and under 1000 nM in series [3].

Turning to `CCC(C(c1ccc2nc(Cl)sc2c1)n1ccnc1)N(C)CC` (centres unmarked) [Example 10, 1-(2-Chlorobenzo[d]thiazol-6-yl)-N-ethyl-1-(1H-imidazol-1-yl)-N-methylbutan-2-amine], the IC50 was under 5 µM in series [2] and under 1000 nM in series [3].

Take `CCC(C(c1ccc2nc(N)sc2c1)n1ccnc1)N(C)C` (centres unmarked) [Example 1, 6-(2-(Dimethylamino)-1-(1H-imidazol-1-yl)butyl)benzo[d]thiazol-2-amine]: the half-inhibitory concentration (IC50) was under 1000 nM in series [1], under 5 µM in series [2] and under 1000 nM in series [3].

Consider `CCC(C(c1ccc2nc(NC(N)=O)sc2c1)n1ccnc1)N(C)C` (centres unmarked) [Example 2, 1-(6-(2-(Dimethylamino)-1-(1H-imidazol-1-yl)butyl)benzo[d]thiazol-2-yl)urea], for which the concentration for half-maximal inhibition (IC50) in series [2] was under 5 µM; in series [3], under 1000 nM.

As for `CC1=C(/C=C/C(C)=C/C=C/C(C)=C/C(=O)O)C(C)(C)CCC1` [ATRA, all-trans retinoic acid], the Km in series [4] was about 10 nM.

In the case of `CCC(C(c1ccc2nc(N)sc2c1)n1ccnc1)N(C)CC` (centres unmarked) [Example 32, 6-(2-(Ethyl(methyl)amino)-1-(1H-imidazol-1-yl)butyl)benzo[d]thiazol-2-amine], the IC50 in series [2] is under 5 µM; in series [3], under 1000 nM.

B1: CYP26 (Mus musculus) (protein)
chain: T1 sequence (O55127 1-497)
Turning to B1, the Km in series [5] was determined as 4 nM.

As usually defined, the IC50 is the concentration at which inhibition is half-maximal. The term Km denotes the substrate concentration at which the rate is half of its maximum.
